Measurements published in ChEMBL document CHEMBL1201862, “PubChem BioAssay data set” (2004).
Active and inactive are the calls of the source.

Legend:
[1] = molecular target: Voltage-dependent T-type calcium channel subunit alpha-1H (Homo sapiens, UniProt O95180); type: functional;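 further: channel activity triggered by adding a high calcium stimulation buffer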
[2] = cytotoxicity in HEK-293T cells, dose response, cytotoxicity control for BCR NF-kB inhibitor project, luminescence, B-cell screen hits (AID 489021); type: functional, cell-based;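 further: HEK-293T cells carrying an NF-kB luciferase reporter; cells exposed to compound for about 14 hours before viability readout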
[3] = molecular target: T1, Voltage-gated N-type calcium channel alpha-1B subunit/Amyloid beta A4 precursor protein-binding family A member 1 (Homo sapiens, UniProt Q00975+Q02410); type: protein assay
[4] = molecular target: T1, Voltage-gated N-type calcium channel alpha-1B subunit/Amyloid beta A4 precursor protein-binding family A member 1; type: protein assay; remark: listed apart in the source
Leucine aminopeptidase = molecular target: T2, Leucine aminopeptidase (Plasmodium falciparum 3D7, UniProt Q8IL11); experiment: P. falciparum M17LAP inhibitors, primary screen, biochemical, fluorogenic H-Leu-NHMec substrate, 1536-well (AID 1619); type: functional
T2 sequence (Q8IL11 whole entry): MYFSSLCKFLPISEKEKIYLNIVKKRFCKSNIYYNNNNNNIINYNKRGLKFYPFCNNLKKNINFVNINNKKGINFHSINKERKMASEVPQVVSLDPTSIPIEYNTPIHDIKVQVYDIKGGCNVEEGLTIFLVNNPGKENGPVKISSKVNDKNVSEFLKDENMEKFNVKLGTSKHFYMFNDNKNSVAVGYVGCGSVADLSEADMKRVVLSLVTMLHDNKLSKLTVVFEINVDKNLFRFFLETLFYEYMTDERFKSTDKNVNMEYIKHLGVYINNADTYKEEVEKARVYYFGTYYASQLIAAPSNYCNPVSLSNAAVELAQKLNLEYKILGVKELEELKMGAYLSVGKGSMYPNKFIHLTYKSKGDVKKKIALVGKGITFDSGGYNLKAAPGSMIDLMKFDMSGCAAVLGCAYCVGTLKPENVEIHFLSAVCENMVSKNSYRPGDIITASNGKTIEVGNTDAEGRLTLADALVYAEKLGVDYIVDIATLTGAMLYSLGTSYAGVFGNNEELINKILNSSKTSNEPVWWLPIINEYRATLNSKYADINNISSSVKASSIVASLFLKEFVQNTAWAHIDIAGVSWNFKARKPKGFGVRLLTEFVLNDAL

Genome polyprotein = Genome polyprotein (dengue virus type 2, UniProt P29990); experiment: Dengue-2 NS5 methyltransferase inhibitors, primary screen, biochemical, confirmation dose response (AID 588689); type: functional
cells = type: functional
[5] = cytotoxicity in HEK-293T cells, dose response, cytotoxicity control for TCR NF-kB inhibitor project, luminescence, T-cell screen hits (AID 489026); type: functional, cell-based;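 further: cells exposed to compound about 14 hours before the viability readout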
[6] = inhibitors of firefly luciferase expression or activity, dose response, H4 neuroglioma cells, luminescence (AID 1990); type: functional, cell-based
[7] = Luminescence Cell-Based Dose Response HTS to Identify Inhibitors of 5'UTR Stem-Loop Driven Prion Protein mRNA Translation in H4 Neuroglioblastoma Cells. [Related pubchem assays: 1827 (Project Summary), 1813 (Primary HTS)]; type: functional
[8] = inhibitors of SNCA 5'UTR-driven reporter translation, confirmation, H4 neuroglioma cells, luminescence (AID 1988); type: functional, cell-based
[9] = THP-1 cell cytotoxicity, dose response, cytotoxicity control for Vif-APOBEC3G degradation inhibitor project, THP-1 cells (AID 1117359); type: functional; conditions: Human immunodeficiency virus 1, THP-1
[10] = molecular target: T3, RNA-binding protein pos-1 (Caenorhabditis elegans, UniProt G5EF15); experiment: inhibitors of POS-1/mex-3 RNA binding, dose response, biochemical, fluorescence polarization (AID 1964);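 further: purified POS-1 fused to maltose binding protein made in E. coli; potency of compounds blocking POS-1 binding to fluorescent RNA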
T3 sequence (G5EF15 whole entry): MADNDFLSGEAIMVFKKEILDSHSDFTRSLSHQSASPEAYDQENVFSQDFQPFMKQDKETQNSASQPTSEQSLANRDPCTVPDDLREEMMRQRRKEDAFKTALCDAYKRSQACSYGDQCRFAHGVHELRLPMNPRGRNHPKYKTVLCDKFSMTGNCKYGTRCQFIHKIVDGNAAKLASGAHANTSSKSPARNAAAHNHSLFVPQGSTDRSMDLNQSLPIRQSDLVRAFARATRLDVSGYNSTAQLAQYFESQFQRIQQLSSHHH

[11] = molecular target: T4, Polyadenylate-binding protein 1 (Homo sapiens, UniProt P11940); experiment: PABP1 MLLE–PAM2 interaction inhibitors, dose response, miRNA deadenylation inhibitor project, biochemical, fluorescence polarization, Cy5-PAM2 peptide, secondary (AID 602260); type: functional; conditions: read-out: IC50_Mean
[12] = molecular target: T4, Polyadenylate-binding protein 1; experiment: PABP1 MLLE–PAM2 binding inhibitor potency, dose response, biochemical, fluorescence polarization, FITC-PAM2 peptide (AID 602259); type: functional; conditions: read-out: IC50_Mean
[13] = molecular target: T5, Zinc finger protein mex-5 (Caenorhabditis elegans, UniProt Q9XUB2); experiment: MEX-5/TCR-2 RNA interaction inhibitors, dose response, biochemical, C. elegans, fluorescence polarization (AID 1960)
T5 sequence (Q9XUB2 whole entry): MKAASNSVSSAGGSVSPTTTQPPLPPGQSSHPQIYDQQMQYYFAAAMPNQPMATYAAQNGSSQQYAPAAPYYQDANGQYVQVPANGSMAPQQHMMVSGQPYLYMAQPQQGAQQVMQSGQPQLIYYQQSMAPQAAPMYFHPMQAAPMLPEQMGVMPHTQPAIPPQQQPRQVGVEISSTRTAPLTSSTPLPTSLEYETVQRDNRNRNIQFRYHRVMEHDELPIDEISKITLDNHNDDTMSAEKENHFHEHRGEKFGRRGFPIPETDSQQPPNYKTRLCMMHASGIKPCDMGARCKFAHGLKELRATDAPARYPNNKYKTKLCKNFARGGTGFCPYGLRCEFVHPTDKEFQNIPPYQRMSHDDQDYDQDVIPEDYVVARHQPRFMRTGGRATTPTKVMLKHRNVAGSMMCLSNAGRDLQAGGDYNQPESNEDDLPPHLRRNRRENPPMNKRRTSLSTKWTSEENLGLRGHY

[14] = molecular target: T6, Histone-lysine N-methyltransferase NSD2 (Homo sapiens, UniProt O96028); type: biochemical
T6 sequence (O96028 whole entry): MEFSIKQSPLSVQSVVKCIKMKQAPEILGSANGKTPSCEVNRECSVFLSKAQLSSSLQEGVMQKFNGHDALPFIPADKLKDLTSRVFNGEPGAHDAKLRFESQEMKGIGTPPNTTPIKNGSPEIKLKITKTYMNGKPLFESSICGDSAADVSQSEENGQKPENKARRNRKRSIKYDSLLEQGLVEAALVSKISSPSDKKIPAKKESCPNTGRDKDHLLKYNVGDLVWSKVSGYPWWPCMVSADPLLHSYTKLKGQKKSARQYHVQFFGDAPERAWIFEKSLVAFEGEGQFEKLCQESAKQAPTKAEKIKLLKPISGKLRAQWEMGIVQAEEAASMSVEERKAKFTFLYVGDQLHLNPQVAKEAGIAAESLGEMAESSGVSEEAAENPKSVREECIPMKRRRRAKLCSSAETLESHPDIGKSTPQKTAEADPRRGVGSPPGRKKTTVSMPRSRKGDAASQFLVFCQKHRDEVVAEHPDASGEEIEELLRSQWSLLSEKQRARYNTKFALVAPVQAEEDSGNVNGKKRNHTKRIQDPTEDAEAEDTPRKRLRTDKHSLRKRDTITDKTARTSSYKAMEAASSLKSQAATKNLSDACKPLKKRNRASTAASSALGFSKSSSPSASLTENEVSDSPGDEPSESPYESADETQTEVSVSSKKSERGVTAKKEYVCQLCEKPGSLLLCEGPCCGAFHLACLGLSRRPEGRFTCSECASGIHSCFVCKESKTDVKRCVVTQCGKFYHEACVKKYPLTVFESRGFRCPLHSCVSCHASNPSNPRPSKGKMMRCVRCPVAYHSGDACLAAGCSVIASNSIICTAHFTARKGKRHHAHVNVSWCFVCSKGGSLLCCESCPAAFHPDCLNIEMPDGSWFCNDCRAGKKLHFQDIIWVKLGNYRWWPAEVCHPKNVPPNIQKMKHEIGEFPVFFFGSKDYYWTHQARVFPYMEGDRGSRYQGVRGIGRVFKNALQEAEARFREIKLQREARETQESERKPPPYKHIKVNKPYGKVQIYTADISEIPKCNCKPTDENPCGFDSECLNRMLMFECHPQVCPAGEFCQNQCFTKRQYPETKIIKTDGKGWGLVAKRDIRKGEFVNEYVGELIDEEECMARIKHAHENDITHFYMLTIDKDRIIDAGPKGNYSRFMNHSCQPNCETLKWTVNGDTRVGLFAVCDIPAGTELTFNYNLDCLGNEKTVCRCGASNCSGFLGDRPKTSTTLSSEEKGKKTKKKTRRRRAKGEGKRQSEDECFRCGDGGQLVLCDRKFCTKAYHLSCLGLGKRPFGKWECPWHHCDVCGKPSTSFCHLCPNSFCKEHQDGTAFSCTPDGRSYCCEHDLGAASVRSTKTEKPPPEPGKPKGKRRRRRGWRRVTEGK

[15] = molecular target: FAD-linked sulfhydryl oxidase ALR (Homo sapiens, UniProt P55789); experiment: inhibitors of human ALR sulfhydryl oxidase, dose response, biochemical, H2O2 detection, luminescence, cherry-pick (AID 493248)
Large T antigen = Large T antigen (Simian virus 40, UniProt P03070); type: functional, Betapolyomavirus macacae;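 further: Confirmatory-stage PubChem screen for compounds that inhibit SV40 T antigen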
Large T antigen, sequence (P03070 whole entry): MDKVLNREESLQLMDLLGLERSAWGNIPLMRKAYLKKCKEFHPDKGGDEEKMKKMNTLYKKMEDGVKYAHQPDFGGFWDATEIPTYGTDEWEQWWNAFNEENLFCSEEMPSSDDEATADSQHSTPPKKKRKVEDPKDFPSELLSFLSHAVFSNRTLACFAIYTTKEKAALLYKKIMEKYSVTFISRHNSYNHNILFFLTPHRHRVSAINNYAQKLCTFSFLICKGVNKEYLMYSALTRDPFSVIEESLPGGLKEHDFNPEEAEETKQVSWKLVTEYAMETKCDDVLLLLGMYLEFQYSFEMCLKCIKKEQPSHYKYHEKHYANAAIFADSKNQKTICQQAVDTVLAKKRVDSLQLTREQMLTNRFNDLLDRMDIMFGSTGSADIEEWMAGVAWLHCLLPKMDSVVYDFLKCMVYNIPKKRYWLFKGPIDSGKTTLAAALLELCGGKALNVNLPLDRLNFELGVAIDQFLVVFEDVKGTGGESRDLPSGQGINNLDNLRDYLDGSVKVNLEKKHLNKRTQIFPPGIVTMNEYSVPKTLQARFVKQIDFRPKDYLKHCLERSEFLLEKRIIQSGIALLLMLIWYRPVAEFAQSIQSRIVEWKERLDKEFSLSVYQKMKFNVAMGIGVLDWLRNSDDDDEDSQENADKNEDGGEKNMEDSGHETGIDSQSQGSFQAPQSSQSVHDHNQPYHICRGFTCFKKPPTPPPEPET

Voltage-dependent T-type calcium channel subunit alpha-1H, sequence (O95180 whole entry): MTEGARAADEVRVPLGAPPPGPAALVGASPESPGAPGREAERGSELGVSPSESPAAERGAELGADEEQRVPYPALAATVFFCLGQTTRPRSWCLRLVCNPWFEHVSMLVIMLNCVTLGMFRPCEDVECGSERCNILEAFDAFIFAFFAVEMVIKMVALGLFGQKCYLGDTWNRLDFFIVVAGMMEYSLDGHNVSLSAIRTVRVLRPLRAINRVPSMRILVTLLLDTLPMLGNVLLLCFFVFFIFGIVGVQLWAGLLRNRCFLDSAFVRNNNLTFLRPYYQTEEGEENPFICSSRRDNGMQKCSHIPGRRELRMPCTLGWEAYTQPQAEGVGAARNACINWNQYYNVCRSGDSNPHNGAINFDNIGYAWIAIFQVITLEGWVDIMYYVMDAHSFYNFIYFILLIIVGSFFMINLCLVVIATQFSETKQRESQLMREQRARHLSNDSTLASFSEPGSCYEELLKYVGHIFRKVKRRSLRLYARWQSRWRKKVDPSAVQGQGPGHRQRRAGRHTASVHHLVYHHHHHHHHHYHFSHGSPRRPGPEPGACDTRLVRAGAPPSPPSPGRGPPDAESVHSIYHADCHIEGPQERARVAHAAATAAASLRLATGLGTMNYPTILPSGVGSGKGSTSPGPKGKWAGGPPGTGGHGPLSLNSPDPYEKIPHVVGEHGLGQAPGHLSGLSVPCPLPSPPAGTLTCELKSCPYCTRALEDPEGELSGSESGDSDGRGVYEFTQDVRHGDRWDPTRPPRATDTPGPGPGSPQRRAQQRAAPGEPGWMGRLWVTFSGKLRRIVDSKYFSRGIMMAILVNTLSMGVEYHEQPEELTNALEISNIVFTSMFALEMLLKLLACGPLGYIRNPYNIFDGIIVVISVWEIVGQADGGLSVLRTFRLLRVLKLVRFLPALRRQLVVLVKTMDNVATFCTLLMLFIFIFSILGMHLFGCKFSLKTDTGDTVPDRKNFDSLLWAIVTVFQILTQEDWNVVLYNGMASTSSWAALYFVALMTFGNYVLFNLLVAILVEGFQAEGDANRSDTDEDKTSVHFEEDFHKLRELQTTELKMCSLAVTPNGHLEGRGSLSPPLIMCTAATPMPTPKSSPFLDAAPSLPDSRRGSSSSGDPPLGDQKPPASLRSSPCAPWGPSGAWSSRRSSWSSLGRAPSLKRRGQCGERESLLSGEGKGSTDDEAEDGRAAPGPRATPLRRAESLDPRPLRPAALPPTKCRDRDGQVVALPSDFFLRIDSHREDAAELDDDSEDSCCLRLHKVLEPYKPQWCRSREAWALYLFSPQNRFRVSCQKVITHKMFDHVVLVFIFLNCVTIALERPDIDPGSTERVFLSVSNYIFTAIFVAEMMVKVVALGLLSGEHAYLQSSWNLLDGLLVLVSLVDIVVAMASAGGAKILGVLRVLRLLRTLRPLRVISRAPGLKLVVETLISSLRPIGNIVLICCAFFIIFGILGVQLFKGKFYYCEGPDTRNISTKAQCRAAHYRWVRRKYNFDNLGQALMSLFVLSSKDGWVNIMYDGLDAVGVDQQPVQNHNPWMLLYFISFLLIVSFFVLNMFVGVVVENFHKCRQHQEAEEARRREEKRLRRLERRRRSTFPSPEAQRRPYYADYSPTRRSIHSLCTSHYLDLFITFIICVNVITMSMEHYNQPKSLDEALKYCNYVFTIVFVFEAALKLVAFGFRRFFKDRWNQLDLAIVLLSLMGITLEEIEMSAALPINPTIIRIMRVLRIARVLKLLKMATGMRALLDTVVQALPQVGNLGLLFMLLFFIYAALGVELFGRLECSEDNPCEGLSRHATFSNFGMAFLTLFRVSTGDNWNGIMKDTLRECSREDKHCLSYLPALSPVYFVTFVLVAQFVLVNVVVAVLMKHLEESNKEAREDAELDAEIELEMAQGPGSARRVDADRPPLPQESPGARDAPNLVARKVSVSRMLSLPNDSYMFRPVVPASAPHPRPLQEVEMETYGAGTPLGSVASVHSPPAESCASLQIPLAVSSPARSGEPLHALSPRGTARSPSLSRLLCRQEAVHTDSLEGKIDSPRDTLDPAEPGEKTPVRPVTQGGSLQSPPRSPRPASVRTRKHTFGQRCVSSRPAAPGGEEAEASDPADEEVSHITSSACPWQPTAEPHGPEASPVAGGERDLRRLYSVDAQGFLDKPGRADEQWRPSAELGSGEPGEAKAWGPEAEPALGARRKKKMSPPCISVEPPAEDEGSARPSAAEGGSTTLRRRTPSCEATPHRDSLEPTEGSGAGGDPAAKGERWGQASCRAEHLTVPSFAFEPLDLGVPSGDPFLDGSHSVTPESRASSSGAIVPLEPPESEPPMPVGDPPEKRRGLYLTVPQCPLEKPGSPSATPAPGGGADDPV
T4 sequence (P11940 whole entry): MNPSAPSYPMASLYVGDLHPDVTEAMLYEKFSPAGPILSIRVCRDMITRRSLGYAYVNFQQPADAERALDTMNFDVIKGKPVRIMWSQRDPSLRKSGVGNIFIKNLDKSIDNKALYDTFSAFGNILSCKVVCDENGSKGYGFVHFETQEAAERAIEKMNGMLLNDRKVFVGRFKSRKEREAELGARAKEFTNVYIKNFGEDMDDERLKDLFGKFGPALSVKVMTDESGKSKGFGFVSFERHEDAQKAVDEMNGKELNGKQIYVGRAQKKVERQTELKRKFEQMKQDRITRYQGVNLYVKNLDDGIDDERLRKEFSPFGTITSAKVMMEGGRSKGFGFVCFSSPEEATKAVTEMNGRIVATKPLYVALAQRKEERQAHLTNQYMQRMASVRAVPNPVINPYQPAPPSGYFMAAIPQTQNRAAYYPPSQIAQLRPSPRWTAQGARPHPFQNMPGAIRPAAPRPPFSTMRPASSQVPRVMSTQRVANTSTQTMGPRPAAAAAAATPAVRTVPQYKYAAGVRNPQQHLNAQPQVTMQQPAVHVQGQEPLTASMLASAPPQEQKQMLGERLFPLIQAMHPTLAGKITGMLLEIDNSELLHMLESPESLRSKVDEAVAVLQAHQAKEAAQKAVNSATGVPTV
FAD-linked sulfhydryl oxidase ALR, sequence (P55789 whole entry): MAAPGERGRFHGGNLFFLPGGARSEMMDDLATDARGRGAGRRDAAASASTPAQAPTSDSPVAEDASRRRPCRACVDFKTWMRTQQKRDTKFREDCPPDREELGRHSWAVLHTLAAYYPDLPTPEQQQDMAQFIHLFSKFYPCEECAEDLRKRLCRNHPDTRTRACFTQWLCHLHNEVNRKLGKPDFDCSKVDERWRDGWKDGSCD
Genome polyprotein, sequence (P29990 2492-3391 limits assumed): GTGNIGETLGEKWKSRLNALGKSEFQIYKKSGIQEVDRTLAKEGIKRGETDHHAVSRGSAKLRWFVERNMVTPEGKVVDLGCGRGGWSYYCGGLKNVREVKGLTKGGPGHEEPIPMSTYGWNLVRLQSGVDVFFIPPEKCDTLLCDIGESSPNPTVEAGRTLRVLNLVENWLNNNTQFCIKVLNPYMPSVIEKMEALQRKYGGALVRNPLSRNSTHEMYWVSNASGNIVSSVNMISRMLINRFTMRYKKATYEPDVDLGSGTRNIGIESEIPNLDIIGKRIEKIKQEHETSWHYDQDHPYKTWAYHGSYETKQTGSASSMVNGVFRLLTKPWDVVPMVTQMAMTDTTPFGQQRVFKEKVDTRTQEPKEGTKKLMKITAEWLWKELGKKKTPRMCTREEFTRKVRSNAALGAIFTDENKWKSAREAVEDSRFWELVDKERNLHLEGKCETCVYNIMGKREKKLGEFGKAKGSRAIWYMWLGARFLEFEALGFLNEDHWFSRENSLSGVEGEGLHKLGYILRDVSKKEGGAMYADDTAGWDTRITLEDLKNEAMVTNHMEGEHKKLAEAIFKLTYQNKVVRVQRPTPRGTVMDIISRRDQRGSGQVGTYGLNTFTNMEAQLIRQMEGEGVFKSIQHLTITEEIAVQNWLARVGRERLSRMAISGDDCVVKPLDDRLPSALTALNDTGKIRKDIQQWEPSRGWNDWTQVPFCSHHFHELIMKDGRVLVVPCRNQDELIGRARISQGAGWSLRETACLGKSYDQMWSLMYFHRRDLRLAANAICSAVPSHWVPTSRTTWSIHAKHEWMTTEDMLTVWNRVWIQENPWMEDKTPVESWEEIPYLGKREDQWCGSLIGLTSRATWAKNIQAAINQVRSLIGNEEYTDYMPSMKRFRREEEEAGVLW

Which EC50 [1] does the source give for `Cc1cc(C)cc(N(CC(=O)NCc2ccc3c(c2)OCO3)C(=O)CCC(=O)Nc2ccccn2)c1` here?
The EC50 was 2.74 µM (active).

Which IC50 [2] does the source give for `CCc1ccc(/C=C2/SC(=S)N(CCC(=O)Nc3cccc(C(=O)O)c3)C2=O)cc1` here?
The IC50 was > 80 µM (inactive).

Which IC50 [3] does the source give for `CCCC(C(=O)NC1CCCC1)N(C(=O)Cn1nnc(-c2ccc(C)o2)n1)C1CCCC1` (stereo not drawn) here?
Its IC50 is 45 µM (active).

What about the IC50 [4] of the same molecule?
Its IC50 is 0.221 µM (active).

Which IC50 (Leucine aminopeptidase) does the source give for `O=C(Nc1nncs1)c1ccccc1Br` here?
The IC50 was 16 µM (active).

Which IC50 (Leucine aminopeptidase) does the source give for `Cc1sc(NC(=O)C2CCCCC2C(=O)O)c(C(N)=O)c1-c1ccc(C(C)C)cc1` (stereo not drawn) here?
Its IC50 is 7.2 µM (active).

And the IC50 (Genome polyprotein)?
The IC50 was 62.7 µM (active).

With `O=C(CCNc1ccc(Cl)c(C(F)(F)F)c1)c1ccco1` as the molecule, how does the IC50 (cells) read?
Its IC50 is 31 µM (active).

And the EC50 [1]?
The EC50 was 9.96 µM (active).

Which EC50 [1] does the source give for `COc1ccc(S(=O)(=O)N2CCC(C(=O)N3CCc4ccccc4C3)CC2)cc1C` here?
The EC50 was 4.51 µM (active).

For `CC(=O)Oc1ccc(-c2ccc(C(=O)NCCc3ccc(S(N)(=O)=O)cc3)cc2)cc1`, which IC50 [3] is on record?
Its IC50 is > 50 µM (inactive).

And the IC50 [4]?
Its IC50 is 11.4 µM (active).

Which IC50 [2] does the source give for `COc1ccc(CC(=O)Nc2cccc(-c3ccc4nnc(C)n4n3)c2)cc1` here?
Its IC50 is > 80 µM (inactive).

For `Clc1cccc(Cl)c1OCCOCCNCc1ccccc1`, which IC50 [5] is on record?
Its IC50 is > 80 µM (inactive).

Which IC50 [2] does the source give for `Cc1[nH]c2ccccc2c1C(=O)CN1C(=O)NC2(CC(C)CC(C)(C)C2)C1=O` (stereo not drawn) here?
The IC50 was 52.8 µM (inactive).

What about the EC50 [6] of the same molecule?
Its EC50 is 11.4 µM (active).

What about the EC50 [7] of the same molecule?
Its EC50 is 22.3 µM (active).

What about the EC50 [8] of the same molecule?
The EC50 was 10.8 µM (active).

For `CCOc1ccc(NC(=O)CN2C(=O)CSC(C)C2=O)cc1` (stereo not drawn), which IC50 (Leucine aminopeptidase) is on record?
Its IC50 is 1.21 µM (active).

For `Cc1ccc2nc(O)c(CN(Cc3ccco3)C(=O)c3ccncc3)cc2c1`, which CC50 [9] is on record?
Its CC50 is 13.5 µM (active).

With `Cc1cc2oc(C(=O)Nc3ccc(S(N)(=O)=O)cc3)c(C)c2cc1Cl` as the molecule, how does the IC50 [3] read?
Its IC50 is > 50 µM (inactive).

And the IC50 [4]?
Its IC50 is 6.72 µM (active).

For `O=C(CCCOc1ccccc1)N1CCN(c2ccc(F)cc2)CC1`, which EC50 [1] is on record?
Its EC50 is 4.49 µM (active).

Which results are given for `NS(=O)(=O)c1ccc(-c2ccc(C=C3C(=O)c4ccccc4C3=O)o2)cc1`?
IC50 [3]: > 50 µM (inactive); IC50 [4]: > 56.8 µM (not active)

Which IC50 [5] does the source give for `CCOC(=O)c1[nH]c(C)c(C(=O)Nc2ccc(C)cc2C)c1C` here?
The IC50 was > 80 µM (inactive).

With `Cc1nn(-c2c(Cl)cc(Cl)cc2Cl)c(=O)c2ccccc12` as the molecule, how does the CC50 [9] read?
The CC50 was 30.1 µM (active).

Which IC50 (Leucine aminopeptidase) does the source give for `O=C(NC(=S)NNS(=O)(=O)c1ccccc1)c1cccnc1` here?
Its IC50 is 43.9 µM (active).

What about the EC50 [10] of the same molecule?
The EC50 was > 300 µM (not active).

And the IC50 [11]?
Its IC50 is > 66 µM (inactive).

And the IC50 [12]?
Its IC50 is > 66 µM (inactive).

And the EC50 [13]?
Its EC50 is > 300 µM (not active).

For `CCOc1ccc(N(C)S(=O)(=O)c2ccc(-c3cc(C)no3)s2)cc1`, which IC50 [5] is on record?
The IC50 was > 80 µM (inactive).

With `COc1ccc([N+](=O)[O-])cc1CSc1nnc(NC(C)=O)s1` as the molecule, how does the CC50 [9] read?
The CC50 was > 40 µM (active).

For `C/C(CC(=O)Nc1ccc2ccccc2c1)=N\NC(=O)c1ccc(O)c(O)c1`, which AC50 [14] is on record?
Its AC50 is 9.2 µM (active).

And the AC50 [15]?
The AC50 was 4.3 µM (active).

What about the IC50 (Large T antigen) of the same molecule?
The IC50 was 14 µM (active).

For `COc1ccc(/C=N/N=C2\SC(CC(=O)O)C(=O)N2c2ccccc2)c(OC)c1` (stereo not drawn), which IC50 (Leucine aminopeptidase) is on record?
The IC50 was 95.3 µM (active).
